Data taken from PubChem BioAssay AID330 (DTP/NCI, 2004).
“And” between values parts separate entries of the source, which are not always exact repeats. Equal values may be shown once. Inconclusive results and toxic doses are left out. Rule for the calls: active = survival T/C of 150% or more; inactive = T/C below 125% in these data.

Test system: P388 leukemia ip, CD2F1 mice, survival T/C
Test: NCI In Vivo Anticancer Drug Screen. Data for tumor model P388 Leukemia (intraperitoneal) in CD2F1 (CDF1) mice
Details: endpoint: median survival time, higher = longer survival
Method in brief: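 Mice carrying the transplanted tumor received test compound or vehicle. Survival was recorded in each group, and the value is the treated-group measurement divided by that of the vehicle-treated control group.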

[1] = dose: 50.0 mg/kg/injection, schedule: Q01DX009 (ip), vehicle: saline with Tween-80
[2] = dose: 100.0 mg/kg/injection, schedule: Q01DX009 (ip), vehicle: saline with Tween-80
[3] = dose: 200.0 mg/kg/injection, schedule: Q01DX009 (ip), vehicle: saline with Tween-80
[4] = dose: 25.0 mg/kg/injection, schedule: Q01DX009 (ip), vehicle: saline
[5] = dose: 50.0 mg/kg/injection, schedule: Q01DX009 (ip), vehicle: saline
[6] = dose: 100.0 mg/kg/injection, schedule: Q01DX009 (ip), vehicle: saline
[7] = dose: 50.0 mg/kg/injection, schedule: Q01DX005 (ip), vehicle: saline with Tween-80
[8] = dose: 100.0 mg/kg/injection, schedule: Q01DX005 (ip), vehicle: saline with Tween-80
[9] = dose: 50.0 mg/kg/injection, schedule: Q04DX002 (ip), vehicle: saline with Tween-80
[10] = dose: 100.0 mg/kg/injection, schedule: Q04DX002 (ip), vehicle: saline with Tween-80
[11] = dose: 200.0 mg/kg/injection, schedule: Q04DX002 (ip), vehicle: saline with Tween-80

Measured: T/C

CSc1ncnc2c1ncn2C1OC(CO)C(O)C1O (centres undefined)
inactive: dose: 2.0 mg/kg/injection, schedule: Q01DX010 (ip), vehicle: saline 107 % of control | dose: 4.0 mg/kg/injection, schedule: Q01DX010 (ip), vehicle: saline 102 % of control and 104 % of control | dose: 8.0 mg/kg/injection, schedule: Q01DX010 (ip), vehicle: saline 100 % of control and 116 % of control | dose: 16.0 mg/kg/injection, schedule: Q01DX010 (ip), vehicle: saline 109 % of control and 120 % of control | dose: 25.0 mg/kg/injection, schedule: Q01DX009 (ip), vehicle: saline with Tween-80 95 % of control | [1] 93 % of control | dose: 54.0 mg/kg/injection, schedule: Q01DX001 (ip), vehicle: saline 111 % of control | dose: 82.0 mg/kg/injection, schedule: Q01DX001 (ip), vehicle: saline 117 % of control and 118 % of control | [2] 104 % of control | [3] 101 % of control

CCCC(=O)Nc1ncnc2c1ncn2C1OC2COP(=O)(O)OC2C1OC(=O)CCC (centres undefined)
inactive: dose: 3.13 mg/kg/injection, schedule: Q03HX012 (ip), vehicle: saline 114 % of control | dose: 6.25 mg/kg/injection, schedule: Q03HX012 (ip), vehicle: saline 112 % of control | dose: 12.5 mg/kg/injection, schedule: Q03HX012 (ip), vehicle: saline 112 % of control | [4] 96 % of control | dose: 25.0 mg/kg/injection, schedule: Q03HX012 (ip), vehicle: saline 112 % of control | [5] 96 % of control | dose: 50.0 mg/kg/injection, schedule: Q03HX012 (ip), vehicle: saline 116 % of control | [6] 96 % of control | dose: 100.0 mg/kg/injection, schedule: Q03HX012 (ip), vehicle: saline 108 % of control | dose: 200.0 mg/kg/injection, schedule: Q01DX009 (ip), vehicle: saline 104 % of control | dose: 400.0 mg/kg/injection, schedule: Q01DX009 (ip), vehicle: saline 109 % of control

O=C(O)c1cc(C(=O)O)cc([N+](=O)[O-])c1
inactive: dose: 25.0 mg/kg/injection, schedule: Q04DX003 (ip), vehicle: saline with Tween-80 100 % of control | dose: 50.0 mg/kg/injection, schedule: Q04DX003 (ip), vehicle: saline with Tween-80 100 % of control | dose: 100.0 mg/kg/injection, schedule: Q04DX003 (ip), vehicle: saline with Tween-80 100 % of control

Cc1c[n+]2ccc3ccccc3c2c2ccccc12
inactive: dose: 2.2 mg/kg/injection, schedule: Q01DX009 (ip), vehicle: Klucel (hydroxypropylcellulose) (HPC) 119 % of control | dose: 2.5 mg/kg/injection, schedule: Q01DX009 (ip), vehicle: Klucel (hydroxypropylcellulose) (HPC) 116 % of control | dose: 3.3 mg/kg/injection, schedule: Q01DX009 (ip), vehicle: Klucel (hydroxypropylcellulose) (HPC) 120 % of control | dose: 5.0 mg/kg/injection, schedule: Q01DX009 (ip), vehicle: Klucel (hydroxypropylcellulose) (HPC) 122 % of control

Nc1ccc2[nH]c(=O)cc(C(=O)O)c2c1
inactive: [7] 92 % of control | [8] 93 % of control | dose: 200.0 mg/kg/injection, schedule: Q01DX005 (ip), vehicle: saline with Tween-80 92 % of control

CN(C)c1ccc(C=C2c3ccccc3C(=O)c3ccccc32)c(Cl)c1
inactive: [1] 100 % of control | [2] 91 % of control | [3] 94 % of control

COC(=O)C(C#N)=C(Cl)Cl
inactive: dose: 1.56 mg/kg/injection, schedule: Q01DX005 (ip), vehicle: Klucel (hydroxypropylcellulose) (HPC) 98 % of control | dose: 3.12 mg/kg/injection, schedule: Q01DX005 (ip), vehicle: Klucel (hydroxypropylcellulose) (HPC) 94 % of control | dose: 6.25 mg/kg/injection, schedule: Q01DX005 (ip), vehicle: Klucel (hydroxypropylcellulose) (HPC) 93 % of control

CCCCCCCCCC(O)C(O)C1CCC(C2CCC(C(O)CCCCCCCCCCCCC3=CC(C)OC3=O)O2)O1 (centres undefined)
inactive: dose: 0.35 mg/kg/injection, schedule: Q01DX005 (ip), vehicle: Klucel (hydroxypropylcellulose) (HPC) 103 % of control and 97 % of control | dose: 0.7 mg/kg/injection, schedule: Q01DX005 (ip), vehicle: Klucel (hydroxypropylcellulose) (HPC) 100 % of control and 99 % of control | dose: 1.4 mg/kg/injection, schedule: Q01DX005 (ip), vehicle: Klucel (hydroxypropylcellulose) (HPC) 112 % of control and 100 % of control | dose: 2.8 mg/kg/injection, schedule: Q01DX005 (ip), vehicle: Klucel (hydroxypropylcellulose) (HPC) 106 % of control and 113 % of control

CCOc1cc2c(cc1C(CC(=O)O)c1ccc(OC)cc1)OCO2 (centres undefined)
inactive: dose: 50.0 mg/kg/injection, schedule: Q01DX005 (ip), vehicle: distilled water + Tween-80 101 % of control | dose: 100.0 mg/kg/injection, schedule: Q01DX005 (ip), vehicle: distilled water + Tween-80 92 % of control | dose: 200.0 mg/kg/injection, schedule: Q01DX005 (ip), vehicle: distilled water + Tween-80 90 % of control

COc1cccc(/C=N/NC(=O)N/N=C/c2cccc(OC)c2O)c1O
inactive: [1] 92 % of control | [2] 100 % of control | [3] 101 % of control | dose: 400.0 mg/kg/injection, schedule: Q01DX009 (ip), vehicle: saline with Tween-80 95 % of control

CCOc1ccc2c(c1)C(C)=CC(C)(C)N2
inactive: dose: 100.0 mg/kg/injection, schedule: Q04DX003 (ip), vehicle: Klucel (hydroxypropylcellulose) (HPC) 99 % of control | dose: 200.0 mg/kg/injection, schedule: Q04DX003 (ip), vehicle: Klucel (hydroxypropylcellulose) (HPC) 102 % of control | dose: 400.0 mg/kg/injection, schedule: Q04DX003 (ip), vehicle: Klucel (hydroxypropylcellulose) (HPC) 102 % of control

Cc1ccc(C(C)C)cc1NC(=O)c1cccnc1
inactive: dose: 50.0 mg/kg/injection, schedule: Q04DX002 (ip), vehicle: Klucel (hydroxypropylcellulose) (HPC) 98 % of control | dose: 100.0 mg/kg/injection, schedule: Q04DX002 (ip), vehicle: Klucel (hydroxypropylcellulose) (HPC) 102 % of control | dose: 200.0 mg/kg/injection, schedule: Q04DX002 (ip), vehicle: Klucel (hydroxypropylcellulose) (HPC) 92 % of control

OC1CC2CC1CC2c1cnc[nH]1 (centres undefined)
inactive: dose: 12.5 mg/kg/injection, schedule: Q04DX002 (ip), vehicle: saline with Tween-80 100 % of control | dose: 25.0 mg/kg/injection, schedule: Q04DX002 (ip), vehicle: saline with Tween-80 100 % of control | [9] 100 % of control | [10] 100 % of control

COc1ccc(CC(=O)Nc2ccc(OC)c(OC)c2)cc1OC
inactive: dose: 25.0 mg/kg/injection, schedule: Q01DX009 (ip), vehicle: other 92 % of control | dose: 50.0 mg/kg/injection, schedule: Q01DX009 (ip), vehicle: other 91 % of control | dose: 100.0 mg/kg/injection, schedule: Q01DX009 (ip), vehicle: other 95 % of control | dose: 200.0 mg/kg/injection, schedule: Q01DX009 (ip), vehicle: other 87 % of control | dose: 400.0 mg/kg/injection, schedule: Q01DX009 (ip), vehicle: other 92 % of control

COc1c(-c2ccccc2)cc(-c2ccccc2)c(-c2ccccc2)c1-c1ccccc1
inactive: [10] 93 % of control | [11] 86 % of control | dose: 400.0 mg/kg/injection, schedule: Q04DX002 (ip), vehicle: saline with Tween-80 89 % of control

O=C(O)c1c(Cl)c(Cl)c(Cl)c(Cl)c1-c1c2cc(I)c(=O)c(I)c-2oc2c(I)c(O)c(I)cc12
inactive: dose: 12.5 mg/kg/injection, schedule: Q01DX009 (ip), vehicle: saline 103 % of control | [4] 88 % of control | [7] 92 % of control | [5] 88 % of control and 91 % of control | [8] 86 % of control | [6] 97 % of control

Nc1cc2[nH]cnc2c(=O)[nH]1
inactive: dose: 6.25 mg/kg/injection, schedule: Q01DX009 (ip), vehicle: suspension in saline 109 % of control and 95 % of control | dose: 12.5 mg/kg/injection, schedule: Q01DX009 (ip), vehicle: suspension in saline 101 % of control and 113 % of control and 97 % of control | dose: 25.0 mg/kg/injection, schedule: Q01DX009 (ip), vehicle: Klucel (hydroxypropylcellulose) (HPC) 100 % of control | dose: 25.0 mg/kg/injection, schedule: Q01DX009 (ip), vehicle: suspension in saline 103 % of control and 107 % of control and 96 % of control | dose: 50.0 mg/kg/injection, schedule: Q01DX009 (ip), vehicle: Klucel (hydroxypropylcellulose) (HPC) 108 % of control | dose: 100.0 mg/kg/injection, schedule: Q01DX009 (ip), vehicle: suspension in saline 99 % of control and 113 % of control | dose: 200.0 mg/kg/injection, schedule: Q01DX009 (ip), vehicle: Klucel (hydroxypropylcellulose) (HPC) 100 % of control | [3] 95 % of control | dose: 200.0 mg/kg/injection, schedule: Q01DX009 (ip), vehicle: suspension in saline 86 % of control and 87 % of control

Fc1ccccc1N/N=c1\nnc2ccccc2s1
inactive: [9] 97 % of control | [10] 93 % of control | [11] 92 % of control
